According to PubChem BioAssay AID1963446 (Molecular Pharmacology Branch, DTP, NCI, 2024):

System: 993429-296-R-J1-PDC complex spheroid growth, percent test/control
Test: Anticancer human tumor 993429-296-R-J1-PDC patient-derived uterine sarcoma cell line growth inhibition [Asc]
Settings: for IC50: curve of first compound; for viability, T/C: stronger effect = lower value
Protocol: Multicellular complex tumor spheroid response to apoptosis pathway targeting inhibitors Alrizomadlin, Pelcitoclax, and Dasminapant in combination with a variety of drugs and investigational agents in selected tumor cell lines
The MDM2 inhibitor alrizomadlin, the Bcl-2/Bcl-xL inhibitor pelcitoclax, and the IAPs inhibitor dasminapant were evaluated both individually and in combination with standard of care and investigational anticancer small molecules within a complex spheroid model of solid tumors. . Complex spheroids include a stromal component modeled by human endothelial cells (HUVEC) and fibroblasts modeled by human mesenchymal stem cells (MSCs). The concentration ranges selected for each drug and investigational agent were based upon clinically achievable concentrations if the clinical Cmax of the agent was known.
Compounds. The drugs and investigational agents: alrizomadlin (APG-115; NSC831270), pelcitoclax (APG-1252; NSC835773), dasminapant (APG-1387;NSC834197), TAK-243 (NSC785004), copanlisib (NSC809693), olaparib (NSC753686), talazoparib (NSC767125), cobimetinib (NSC 768068), eltanexor (KPT-8602, NSC 794443), abemaciclib (NSC 768073), sotorasib (NSC818433), adagrasib (NSC 831453), MRTX-1133 (NSC 836407), Iadademestat (ORY1001, NSC 806812), and RMC-4630 (NSC839698), were obtained from the NCI Developmental Therapeutics Program Chemical Repository. The FDA-approved anticancer drug set is available from the Developmental Therapeutics Program at https://dtp.cancer.gov/organization/dscb/obtaining/available plates.htm. […] The stock solutions were prepared in dimethyl sulfoxide (DMSO, Sigma-Aldrich, St. Louis, MO, cat. D2650) at 800-fold the tested concentration and stored at -70 degrees C prior to their use. All drugs and investigational agents were tested over a range starting from a high concentration at or near the clinical Cmax and decreasing in half-log increments. If the clinical Cmax for an agent had not been determined, the highest concentration tested was 10 microM.
The patient-derived cancer (PDC) cell lines include five colon adenocarcinomas: 186277-243-T-J2-PDC, 616215-338-R-J1-PDC, 439559-082-T-J2-PDC, 463943-066-T-J2-PDC, and 519858-162-T-J1-PDC; three pancreatic carcinomas: 323965-272-R-J2-PDC, 521955-158-R6-J3-PDC, and 521955-158-R2-J5-PDC; two uterine sarcomas: 327498-152-R-J2-PDC and 993429-296-R-J1-PDC; two rhabdomyosarcomas: 755483-174-R-J1-PDC and 772245-204-R-J1-PDC; two soft tissue sarcomas: 126254-015-R-J1-PDC and 494315-158-R-J1-PDC; two malignant fibrous histiocytomas: 317291-083-R-J1-PDC and 596521-263-R-J1-PDC; two breast carcinomas: 171881-019-R-J1-PDC and 885512-296-R-J2-PDC; and one ovarian carcinoma: 6556581-035-R-J-PDC were obtained from the NCI PDMR, (https://pdmr.cancer.gov). The established cell lines HSSY-2 synovial sarcoma (RRID:CVCL 8719), SYO-1 synovial sarcoma (RRID:CVCL_7146), MPNST malignant peripheral neural sheath tumor were obtained from the Sloan Kettering Institute. The following established cell lines were purchased from the American Type Culture Collection (ATCC, Manassas, VA), Sor the received from the NCI repository:, PANC-1 pancreatic carcinoma (CRL-1469, RRID:CVCL_0480), OVCAR-5 ovarian carcinoma (RRID:CVCL_1628), OVCAR-8 ovarian carcinoma (RRID:CVCL_1629), , MCF-7 breast carcinoma (CRL-12584, RRID:CVCL_0031), MDA-MB-231 breast carcinoma (CRL-12532, RRID:CVCL_0062), NCI-H1876 small cell lung carcinoma (CRL-5902, RRID:CVCL_1503), NCI-H510A small cell lung carcinoma (HTB-184, RRID:CVCL_1565), NCI-H1417 (CRL-5869, RRID:CVCL_1469), and NCI-H196 small cell lung carcinoma (CRL-5823, RRID:CVCL_1509). Dr. Peter Houghton (Greehey Children's Cancer Research Institute, University of Texas Health Science Center, San Antonio, TX) provided Rh-18 rhabdomyosarcoma (RRID:CVCL_1659). Pooled donor human umbilical vein endothelial cells (HUVEC, Lonza, cat. CC-2519) and human mesenchymal stem cells (hMSC, Lonza, cat. PT-2501) were purchased from Lonza (Walkersville, MD).
Cell Culture. […]

[1] = second compound 0.03 µM, first compound 0.0316 µM
[2] = second compound 0.03 µM, first compound 0.1 µM
[3] = second compound 0.03 µM, first compound 0.316 µM
[4] = second compound 0.03 µM, first compound 1 µM
[5] = second compound 0.0949 µM, first compound 0.0316 µM
[6] = second compound 0.0949 µM, first compound 0.1 µM
[7] = second compound 0.0949 µM, first compound 0.316 µM
[8] = second compound 0.0949 µM, first compound 1 µM
[9] = second compound 0.3 µM, first compound 0.0316 µM
[10] = second compound 0.3 µM, first compound 0.1 µM
[11] = second compound 0.3 µM, first compound 0.316 µM
[12] = second compound 0.3 µM, first compound 1 µM
[13] = second compound 0.949 µM, first compound 0.0316 µM
[14] = second compound 0.949 µM, first compound 0.1 µM
[15] = second compound 0.949 µM, first compound 0.316 µM
[16] = second compound 0.949 µM, first compound 1 µM
[17] = second compound 3 µM, first compound 0.0316 µM
[18] = second compound 3 µM, first compound 0.1 µM
[19] = second compound 3 µM, first compound 0.316 µM
[20] = second compound 3 µM, first compound 1 µM
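Also: spheroids exposed to compounds for seven days.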

NC(=O)C(=Cn1cnc(-c2cc(C(F)(F)F)cc(C(F)(F)F)c2)n1)c1cncnc1 + CCN1C(C(=O)NC23CCC(C(=O)O)(CC2)CC3)C(c2cccc(Cl)c2F)C2(C(=O)Nc3cc(Cl)ccc32)C12CCCCC2
IC50 (second compound 0.03 µM): 18.6 nM | IC50 (second compound 0.0949 µM): 15.5 nM | IC50 (second compound 0.3 µM): 14 nM | IC50 (second compound 0.949 µM): 20.3 nM | IC50 (second compound 3 µM): 13.3 nM | viability, T/C (second compound 0.03 µM, first compound 0.000949 µM): 98% | viability, T/C (second compound 0.03 µM, first compound 0.003 µM): 97.9% | viability, T/C (second compound 0.03 µM, first compound 0.00949 µM): 71% | viability, T/C (second compound 0.03 µM, first compound 0.03 µM): 34% | viability, T/C (second compound 0.03 µM, first compound 0.0949 µM): 17.8% | viability, T/C (second compound 0.03 µM, first compound 0.3 µM): 9.36% | viability, T/C (second compound 0.0949 µM, first compound 0.000949 µM): 95.3% | viability, T/C (second compound 0.0949 µM, first compound 0.003 µM): 87% | viability, T/C (second compound 0.0949 µM, first compound 0.00949 µM): 63.4% | viability, T/C (second compound 0.0949 µM, first compound 0.03 µM): 31.9% | viability, T/C (second compound 0.0949 µM, first compound 0.0949 µM): 14.9% | viability, T/C (second compound 0.0949 µM, first compound 0.3 µM): 8.83% | viability, T/C (second compound 0.3 µM, first compound 0.000949 µM): 89.3% | viability, T/C (second compound 0.3 µM, first compound 0.003 µM): 85.6% | viability, T/C (second compound 0.3 µM, first compound 0.00949 µM): 55.4% | viability, T/C (second compound 0.3 µM, first compound 0.03 µM): 33.4% | viability, T/C (second compound 0.3 µM, first compound 0.0949 µM): 19.7% | viability, T/C (second compound 0.3 µM, first compound 0.3 µM): 9.08% | viability, T/C (second compound 0.949 µM, first compound 0.000949 µM): 83% | viability, T/C (second compound 0.949 µM, first compound 0.003 µM): 90% | viability, T/C (second compound 0.949 µM, first compound 0.00949 µM): 83.3% | viability, T/C (second compound 0.949 µM, first compound 0.03 µM): 33% | viability, T/C (second compound 0.949 µM, first compound 0.0949 µM): 14% | viability, T/C (second compound 0.949 µM, first compound 0.3 µM): 7.67% | viability, T/C (second compound 3 µM, first compound 0.000949 µM): 81.7% | viability, T/C (second compound 3 µM, first compound 0.003 µM): 87.5% | viability, T/C (second compound 3 µM, first compound 0.00949 µM): 55.4% | viability, T/C (second compound 3 µM, first compound 0.03 µM): 29.8% | viability, T/C (second compound 3 µM, first compound 0.0949 µM): 13% | viability, T/C (second compound 3 µM, first compound 0.3 µM): 8.21%

COc1c(OCCCN2CCOCC2)ccc2c3n(c(=NC(=O)c4cnc(N)nc4)nc12)CCN3 + CCN1C(C(=O)NC23CCC(C(=O)O)(CC2)CC3)C(c2cccc(Cl)c2F)C2(C(=O)Nc3cc(Cl)ccc32)C12CCCCC2
IC50 (second compound 0.03 µM): 24.5 nM | IC50 (second compound 0.0949 µM): 26.1 nM | IC50 (second compound 0.3 µM): 23.5 nM | IC50 (second compound 0.949 µM): 29.1 nM | IC50 (second compound 3 µM): 21.8 nM | viability, T/C (second compound 0.03 µM, first compound 0.00316 µM): 94.7% | viability, T/C (second compound 0.03 µM, first compound 0.01 µM): 84.8% | viability, T/C [1]: 40.2% | viability, T/C [2]: 6.36% | viability, T/C [3]: 4.17% | viability, T/C [4]: 1.31% | viability, T/C (second compound 0.0949 µM, first compound 0.00316 µM): 82.9% | viability, T/C (second compound 0.0949 µM, first compound 0.01 µM): 86.2% | viability, T/C [5]: 43% | viability, T/C [6]: 7.8% | viability, T/C [7]: 3.21% | viability, T/C [8]: 1.48% | viability, T/C (second compound 0.3 µM, first compound 0.00316 µM): 96.6% | viability, T/C (second compound 0.3 µM, first compound 0.01 µM): 73.5% | viability, T/C [9]: 44.7% | viability, T/C [10]: 8.77% | viability, T/C [11]: 3.89% | viability, T/C [12]: 1.15% | viability, T/C (second compound 0.949 µM, first compound 0.00316 µM): 78.4% | viability, T/C (second compound 0.949 µM, first compound 0.01 µM): 89.8% | viability, T/C [13]: 47.4% | viability, T/C [14]: 7.2% | viability, T/C [15]: 4.24% | viability, T/C [16]: 1.63% | viability, T/C (second compound 3 µM, first compound 0.00316 µM): 81.4% | viability, T/C (second compound 3 µM, first compound 0.01 µM): 70% | viability, T/C [17]: 41% | viability, T/C [18]: 7.7% | viability, T/C [19]: 3.98% | viability, T/C [20]: 1.49%

O=C(c1cc(Cc2n[nH]c(=O)c3ccccc23)ccc1F)N1CCN(C(=O)C2CC2)CC1 + CCN1C(C(=O)NC23CCC(C(=O)O)(CC2)CC3)C(c2cccc(Cl)c2F)C2(C(=O)Nc3cc(Cl)ccc32)C12CCCCC2
IC50 (second compound 0.03 µM): 6360 nM | IC50 (second compound 0.0949 µM): 4840 nM | IC50 (second compound 0.3 µM): 6870 nM | IC50 (second compound 0.949 µM): 4900 nM | IC50 (second compound 3 µM): 3040 nM | viability, T/C [1]: 87.8% | viability, T/C [2]: 104% | viability, T/C [3]: 98% | viability, T/C [4]: 100% | viability, T/C (second compound 0.03 µM, first compound 3.16 µM): 66.3% | viability, T/C (second compound 0.03 µM, first compound 10 µM): 39.5% | viability, T/C [5]: 109% | viability, T/C [6]: 106% | viability, T/C [7]: 87.9% | viability, T/C [8]: 113% | viability, T/C (second compound 0.0949 µM, first compound 3.16 µM): 61.9% | viability, T/C (second compound 0.0949 µM, first compound 10 µM): 29.6% | viability, T/C [9]: 92% | viability, T/C [10]: 100% | viability, T/C [11]: 99.7% | viability, T/C [12]: 78.6% | viability, T/C (second compound 0.3 µM, first compound 3.16 µM): 76.1% | viability, T/C (second compound 0.3 µM, first compound 10 µM): 38.5% | viability, T/C [13]: 100% | viability, T/C [14]: 113% | viability, T/C [15]: 88.8% | viability, T/C [16]: 81% | viability, T/C (second compound 0.949 µM, first compound 3.16 µM): 62.2% | viability, T/C (second compound 0.949 µM, first compound 10 µM): 32.1% | viability, T/C [17]: 96.6% | viability, T/C [18]: 90.3% | viability, T/C [19]: 78.4% | viability, T/C [20]: 83.1% | viability, T/C (second compound 3 µM, first compound 3.16 µM): 48.3% | viability, T/C (second compound 3 µM, first compound 10 µM): 33.1%
